# Test results reported in patent publication US8263326B2, “Compounds and methods for modulating activation of NF-κB” (Signal Pharmaceuticals, LLC, priority 1998, dated 2012).
# Non-standard residues stand in square brackets, D forms with d. No end group written: not given here. pS = N[C@@H](COP(=O)(O)O)C(=O)O
# B1: mβ-TrCP: FLAG-tagged mouse β-TrCP, E3 family member (protein)
# chain: MDPAEAVLQEKALKFMNSSEREDCNNGEPPRKIIPEKNSLRQTYNSCARLCINQETVCLTSTAMKTENCVAKAKLANGTSSMIVPKQRKLSASYEKEKELCVKYFEQWSESDQVEFVEHLISQMCHYQHGHINSYLKPMLQRDFITALPARGLDHIAENILSYLDAKSLCAAELVCKEWYRVTSDGMLWKKLIERMVRTDSLWRGLAERRGWGQYLFKNKPPDENAPPNSFYRALYPKIIQDIETIESNWRCGRHSLQRIHCRSETSKGVYCLQYDDQKIVSGLRDNTIKIWDKSTLECKRILTGHTGSVLCLQYDERVIITGSSDSTVRVWDVNAGEMLNTLIHHCEAVLHLRFNNGMMVTCSKDRSIAVWDMASPTDITLRRVLVGHRAAVNVVDFDDKYIVSASGDRTIKVWNTSTCEFVRTLNGHKRGIACLQYRDRLVVSGSSDNTIRLWDIECGACLRVLEGHEELVRCIRFDNKRIVSGAYDGKIKVWDLMAALDPRAPAGTLCLRTLVEHSGRVFRLQFDEFQIVSSSHDDTILIWDFLNDPAAHAEPPRSPSRTYTYISR
# modifications: left off: small tags and cut ends
# notes: FLAG-tagged mouse β-TrCP, E3 family member
# What was measured:
# IκB E3 in HeLa lysate = assay: Fractionation of HeLa lysate over peptide-Sepharose columns, flow-through tested in ubiquitination assay; format: binding, human; details: peptide coupled to NHS-Sepharose, HeLa extract, FIG. 3A
# Experimental: pIκBα-ubiquitin conjugation and degradation requires a full complement of the ubiquitin system enzymes: E1, a specific E2 derived from the ubiquitin system fraction I, E2F1 (Alkalay et al., Proc. Natl. Acad. Sci. USA 92:10599, 1995; Chen et al., Cell 84:853, 1996) and a Fraction II-component E3. To identify the ubiquitin system component involved in the substrate recognition, HeLa lysate was fractionated over IκBα phosphopeptide columns, and the flow-through fractions were assayed for pIκBα conjugation. Peptides were coupled to NHS-Sepharose® (Pharmacia) according to the manufacturer's instructions at a concentration of 2 mg/ml. 100 μg of HeLa extract were incubated with 2.5 μl coupled resin in the presence of 0.1% NP40 and 3% ovalbumin for 1 hour at 4° C. The resin was discarded and the unbound material tested in the ubiquitination assay described above.
# [1] = test system: IκBα-ubiquitin ligase (pIκBα ubiquitination); assay: In vitro ubiquitination assay of phosphorylated, NF-κB complex-associated IκBα in HeLa cell extract; format: biochemical, human; details: peptide at a concentration of 400 μM; Bestatin 40 μg/ml
# Experimental: Following incubation, 1 μl of anti-p65 serum was added, and the NF-κB immune complex was immobilized to Protein A-Sepharose® and subjected to in vitro ubiquitination in HeLa cell extract as described by Alkalay et al. Ubiquitinated proteins were separated by SDS-PAGE and visualized by autoradiography.
# To identify the IκBα-ubiquitin ligase recognition motif, various peptides were added at varying concentrations to the reaction mixtures in the presence of the peptidase inhibitor Bestatin (40 μg/ml). The peptides spanned the N-terminal signaling domain of the protein, and were phosphorylated at one or both serine residues (32 and 36), or were unmodified or serine-substituted. These peptides were included in the ubiquitination reaction at different concentrations and tested for inhibition of pIκBα specific ubiquitination. When conjugation of free IκBα was monitored, the translated protein was added directly to the conjugation reaction mixture.
# [2] = test system: E-selectin expression in primary human vascular endothelial cells (HUVEC); assay: Microinjection into HUVEC, TNFα activation, E-selectin staining; format: cell-based; details: microinjected peptide, TNFα 3 hours
# Experimental: (§1) HeLa cells were plated on a grid coverslips (Cellocate, Eppendorf) 18 hours before microinjection. Microinjection was performed with a 22 amino acid pIκBα peptide (pp21; Table I and SEQ ID NO:9) or a control phospho-Fos peptide (SEQ ID NO: 10) using a semi-automated apparatus (Eppendorf). Peptides were injected into the cell cytoplasm at a concentration of 5 mg/ml in 100 mM KCl, 5 mM Na2HPO4 (pH 7.2), and immediately activated with TNFα (200 units/mL) for either 20 minutes (for NF-κB translocation) or 3 hours (for E-selectin expression). Following activation, the cells were fixed and stained with p65 specific antibodies (Mercurio et al., Genes & Dev. 7:705, 1993; Santa Cruz) or monoclonal anti-E-selectin antibodies (R&D Systems).
# To further assess the functional consequences of NF-κB inhibition, the IκB-E3 inhibitory peptide was microinjected into primary human vascular endothelial cells (HUVEC; Chen et al, J. Immunol 155:3538, 1995). These cells respond to TNFα stimulation by surface expression of NF-κB regulated adhesion proteins, such as E-selection. HUVEC cells were plated, microinjected and stimulated as described above. Three hours post stimulation the cells were fixed and stained for expression of the NF-κB dependent E-selection. 75%-85% of the HUVEC cells were intensely stained for E-selectin following TNFα stimulation in several experiments. […] In contrast, the control pp-Fos peptide had no effect on E-selectin expression, as compared to non-microinjected cells (FIGS. 4F and 4H, column 4). Microinjection of a control, S32736A substituted IκBα peptide had no effect on the rate of E-selectin expression.
# pIκBα degradation = assay: Ubiquitin-dependent in vitro degradation assay with extracts from stimulated HeLa cells; format: biochemical, human; details: 40 μM peptide, FIG. 2
# Experimental: FIG. 2 is an autoradiogram depicting the results of an in vitro ubiquitin-dependent degradation assay performed using extracts from stimulated HeLa cells. In each lane of the SDS-PAGE, the level of phosphorylated (upper band) and non-phosphorylated (lower band) HA-tagged IκBα polypeptide (SEQ ID NO: 12) following the degradation assay is shown. […] In lanes 2-6, ATP was included in the reaction mixture. 40 μM candidate modulating agents were added to the reactions shown in lanes 3-6: doubly phosphorylated IκBα peptide (pp21 (SEQ ID NO:9), lane 3); doubly phosphorylated IκBα peptide (pp19 (SEQ ID NO:8), lane 4); c-Fos phosphopeptide (ppFos (SEQ ID NO: 10), lane 5); and non-phosphorylated IκBα peptide (p21 (SEQ ID NO:9), lane 6).
# The inhibitory pIκBα peptides were tested in a complementary ubiquitin-dependent in vitro degradation assay (Orian et al., J. Biol. Chem. 270:21707, 1995; Stancovski et al., Mol. Cell. Biol. 75:7106, 1995). Using this assay, only pIκBα derived from stimulated cells is degraded in vitro in a ubiquitin-dependent manner, whereas the non-phosphorylated IκBα from the same cell extract is not subject to degradation.
# [3] = test system: NF-κB nuclear translocation in HeLa cells; assay: Microinjection into HeLa cells, TNFα activation, p65 nuclear staining; format: cell-based, human; details: 5 mg/ml peptide microinjected
# Experimental: as §1
# pIκBα = target: T1, pIκBα (Homo sapiens, UniProt P25963); assay: Binding of immobilized FLAG-tagged E3 family members to IκBα/NF-κB complex (Western blot); details: FIG. 11A
# T1 construct: The IκBα/NF-κB complex was immunopurified from HeLa cells; endogenous in cells; host or cells: HeLa cells
# T1 sequence (P25963 whole entry): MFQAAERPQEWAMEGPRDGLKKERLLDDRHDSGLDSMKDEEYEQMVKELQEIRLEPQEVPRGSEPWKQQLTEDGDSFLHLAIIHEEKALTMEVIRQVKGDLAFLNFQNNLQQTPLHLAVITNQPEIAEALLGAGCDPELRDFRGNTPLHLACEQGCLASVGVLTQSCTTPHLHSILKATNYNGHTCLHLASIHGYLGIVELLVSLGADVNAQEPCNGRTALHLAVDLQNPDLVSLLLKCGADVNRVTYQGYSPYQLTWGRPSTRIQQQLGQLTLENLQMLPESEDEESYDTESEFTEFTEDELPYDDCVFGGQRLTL
# T1 sequence (Q04206 whole entry partner): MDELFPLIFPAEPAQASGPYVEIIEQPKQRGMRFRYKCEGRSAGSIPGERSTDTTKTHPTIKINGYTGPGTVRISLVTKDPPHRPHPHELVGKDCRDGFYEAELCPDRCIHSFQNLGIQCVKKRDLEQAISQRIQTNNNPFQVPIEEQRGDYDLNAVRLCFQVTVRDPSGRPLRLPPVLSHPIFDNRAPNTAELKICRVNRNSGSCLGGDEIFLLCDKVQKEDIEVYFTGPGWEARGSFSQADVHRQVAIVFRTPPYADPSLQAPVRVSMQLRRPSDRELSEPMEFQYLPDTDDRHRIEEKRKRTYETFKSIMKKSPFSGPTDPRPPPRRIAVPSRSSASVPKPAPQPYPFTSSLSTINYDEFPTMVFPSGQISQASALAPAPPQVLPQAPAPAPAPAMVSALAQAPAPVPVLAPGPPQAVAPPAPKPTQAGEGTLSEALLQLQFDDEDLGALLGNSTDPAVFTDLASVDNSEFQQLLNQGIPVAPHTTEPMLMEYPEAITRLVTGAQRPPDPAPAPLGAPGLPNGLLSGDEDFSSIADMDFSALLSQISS
# Experimental: FIGS. 11A-11C are Western blots illustrating binding and ubiquitination specificity of E3 ubiquitin ligase family members. Within these figures, mβ-TrCP indicates mouse β-TrCP, hβ-TrCP indicates human β-TrCP, Δβ-TrCP indicates human β-TrCP with a deletion of the F box region and Slimb indicates the Drosophila Slimb protein. FIG. 11A illustrates selective binding to pIκBα. Proteins were immunoprecipitated through a FLAG epitope from transfected 293T cells, incubated with immunopurified IκBα/NF-κB complex, which had been treated (−/+IKK) as indicated and the bound material was analyzed by Western blotting with the indicated antibodies. […] FIG. 11C illustrates in vitro ubiquitination of pIκBα by the E3 family member proteins. Immunopurified FLAG-tagged proteins were incubated with ^35 S-labeled IκBα/NF-κB complexes, treated (−/+IKK) as indicated and subject to ubiquitination in the presence of ATPγS, ubiquitin. E1 and UBC5C. The IκBα substrate (composed of full-length and two degradation products), pIκBα-polyubiquitin conjugates and molecular size markers are indicated on the left.
# The ability of these proteins to bind pIκBα specifically and assist in its ubiquitination was examined in a cell-free system. The IκBα/NF-κB complex was immunopurified from HeLa cells and the immune complex was either phosphorylated with IKK2-EE or mock-phosphorylated as described above. It was then incubated with the following immobilized FLAG-tagged E3 family members immunoprecipitated from transfected 293 cells: mouse β-TrCP (mβ-TrCP), human β-TrCP (hβ-TrCP), human β-TrCP with a deletion of the F box region residues 122-168 (Δβ-TrCP) and the Drosophila Slimb protein. The bound material was analyzed by Western blotting with anti-IκBα and anti-FLAG antibodies. […] Furthermore, β-TrCP binding was abrogated by a peptide representing the pIκBα recognition motif (pp10; DRHDS(PO3)GLDS(PO3)M (SEQ ID NO:29); see FIG. 11B, lane 3), but not by the control peptide (lane 4), specifying the site of pIκBα recognition of the conserved DS(PO3)GLDS(PO3) (SEQ ID NO:30) sequence.
Molecule,IκBα conjugation capacity of column flow-through fraction (IκB E3 in HeLa lysate),effect on the ubiquitination of pIκB [1],effect on E-selectin expression [2],effect on specific pIκBα degradation (pIκBα degradation),also measured
"p21 S/A: serine 32, 36 to alanine substituted IκBα peptide, SEQ ID NO:11 (CKKERLLDDRHDAGLDAMKDEE; listed as Homo sapiens)",retained full IκBα conjugation capacity,no detectable effect,no effect,,
"p21: non-phosphorylated IκBα peptide, SEQ ID NO:9 (CKKERLLDDRHDSGLDSMKDEE; listed as Homo sapiens)",,no detectable effect,,no effect,
"pp21: doubly phosphorylated IκBα peptide, SEQ ID NO:9; 22 amino acid pIκBα peptide (CKKERLLDDRHD[pS]GLD[pS]MKDEE; listed as Homo sapiens)",,,,,"microinjected cells in which TNFα-stimulated NF-κB activation was abolished ([3]; TNFα 200 units/mL 20 minutes, several experiments): 50%-70%; microinjected cells with inhibition of E-selectin expression [2]: 70%-80%"
"ppFos: c-Fos phosphopeptide, SEQ ID NO:10, control (IGRRGKVEQLSPEEEEKRR; not fully specified (residue 11); also: phosphorylated, sites not given here; listed as Homo sapiens)",retained full IκBα conjugation capacity,no detectable effect,no effect,no effect,effect on the rate of NF-κB induced nuclear translocation ([3]; compared to non-microinjected cells): no effect
B1,,,,,"relative binding of IκBα / pIκBα (pIκBα; comparison between family members): far better than the highly homologous Drosophila protein; binding to IKK-phosphorylated versus mock-phosphorylated IκBα (pIκBα; FLAG-tagged protein from transfected 293 cells): exclusively bound IKK-phosphorylated, but not mock-phosphorylated, IκBα"
